# Reference: patent publication US20130045203A1, “Uses of Noscapine and Derivatives in Subjects Diagnosed with FAP” (EMORY UNIVERSITY, priority 2010, published 2013)
# “Also recorded” adds a separate entry of the source.
# Columns and labels:
# [1] = test system: β-catenin activity in Apc^Min/+ MEFs; assay: Tcf4/β-catenin responsive luciferase reporter assay; type: cell-based, mouse
# Text: (§1) HCT116 cells harbor an in-frame deletion of one phosphorylation site (Ser^45) in β-catenin that renders is partially active but has wild type APC. […] Because β-catenin is a negative regulator of CDKs inhibitor p21, p21 levels will rise upon restored downregulation of β-catenin and the cell cycle progression will be inhibited allowing cellular apoptosis (FIG. 2A). […] Hohla et al., Cell Cycle, 2009, 8(19):3149-3156.
# (§2) This decrease in β-catenin levels does translate in reduction of its activity. A reporter gene luciferase under the control of three cloned copies of a conserved Tcf4/β-catenin responsive element was used and compared with an internal control, i.e., another reporter Renilla activity driven by a (β-catenin independent) promoter (CMV) in all three cell types tested (HCT116, DLD, Apc^Min/+ MEFs).
# [2] = Toxicology: histopathology, organ function, hematology; type: in vivo, mouse
# Method: Hematoxylin and eosin stained 5 μm sections of paraffin-embedded brain, lung, liver, kidney, thymus, spleen, heart, and sciatic nerve tissues were analyzed. […] Organ associated toxicity was assessed by measuring organ functions in vehicle-treated and 9-bromonoscapine treated groups. Liver function tests (total bilirubin, alanine transaminase, aspartate aminotransferase, and alkaline phosphate levels) and renal functions tests (blood urea nitrogen and creatinine levels) were similar between drug treated and vehicle-treated groups.
# Apc^Min/+ MEFs [3] = assay: Confocal microscopy of MT arrays and chromosomes; type: cell-based, mouse; conditions: 48 hours of treatment, no recovery after drug removal
# [4] = test system: β-catenin activity in HCT116 cells; assay: Tcf4/β-catenin responsive luciferase reporter assay; type: cell-based; conditions: 8 hours after treatment
# Text: as §1, §2
# [5] = test system: β-catenin activity in DLD1 cells; assay: as above; type: cell-based; conditions: p<0.01
# Text: as §1, §2
# Apc^Min/+ MEFs [6] = assay: FACS analysis of DNA content; type: cell-based, mouse
# [7] = test system: β-catenin levels in Apc^Min/+ MEFs; assay: Quantitative western blot of β-catenin levels; type: cell-based, mouse
# Apc^Min/+ MEFs [8] = assay: Trypan blue exclusion viable/dead cell count; type: cell-based, mouse
# Method: (§3) Murine embryonic fibroblasts (MEFs) isolated from Apc^Min/+ mice and wild type mice were treated with either vehicle solution of DMSO or varying concentrations of 9-bromonoscapine for 48 hours. Viable and dead cells were counted in triplicate using exclusion of the vital dye, trypan blue. […] This provided a therapeutic window (5-50 μM) for selective killing of Apc^Min/+ MEFs while causing minimal damage to the WT MEFs (FIG. 1A).
# WT MEFs [9] = assay: Trypan blue exclusion viable/dead cell count; type: cell-based, mouse; conditions: 48 hours
# Method: as §3
# WT MEFs [10] = assay: Confocal microscopy of MT arrays and chromosomes; type: cell-based, mouse; conditions: reversed 24 hours after withdrawal
# Apc^Min/+ mice = assay: Intestinal polyp/adenoma study in Apc^Min/+ mice; type: in vivo, mouse; conditions: for adenoma load, distal intestine: control 12.5±2.9; for adenoma load, distal intestine / adenoma load, proximal intestine: p<0.01; for adenoma load, proximal intestine: control 32.2±2.3
# Method: Mice were treated either with the vehicle solution alone (control) or 150 mg/kg body weight of 9-bromonoscapine. The mice were analyzed for the number of polyps throughout the gastrointestinal tract of animals. […] Representative bright filed micrographs of hematoxylin and eosine stained 5 μm cross sections from the intestine of vehicle treated control group (FIG. 3A ii, left panel) and 9-bromonoscapine treated group (FIG. 3A ii, right panel) show hyperplastic tissue lesions. In 9-bromonoscapine treated animals, the lesions were not clustered and, when found, seem much more restricted to the individual microvilli and were subdued in appearance (FIG. 3A ii, right panel).
# To distinguish between neopolyposis post-treatment versus the growth of apparently existing polyps, two treatment regimens were followed. Treated 1: 9-bromonoscapine oral treatment (150 mg/kg body weight) began after 8 weeks of age and continued daily for 12 weeks prior to the experimental end point (in 20 weeks): Treated 2: 9-bromonoscapine oral administration began 21 days after birth at the same dose level for time matched period until the experimental end point. At this time, animals were euthanized and the entire GI tract was dissected out and flushed with PBS. The intestine was then removed from the colon and cut into three equal segments: proximal, medial, and distal. The colon and all three segments of the intestine were cut open longitudinally, stained with methylene blue prior to examination under a dissecting microscope fitted with a micrometer to aid the measurements. The vertex and co-vertex of each elliptical lesion was measured. The area was then calculated by multiplying the vertex, co-vertex and π (3.14). […] There was no visible difference between the groups of treated 1 and treated 2. The colonic adenomas are known to be rare in Apc^Min/+ mouse models.
# [11] = test system: cyclin D1, c-Myc, p21, cleaved caspase-3; assay: Quantitative western blot of β-catenin target proteins and cleaved caspase-3; type: cell-based, mouse
# Text: Positively responsive target genes cyclin-D l and c-Myc, and the negatively responsive gene, p21, respond with the restoration of partial loss of function by depleted APC activity after 9-bromonoscapine treatment. […] Furthermore, caspase-3 was activated as measured by the rising levels of cleaved active caspase-3.
# Apc^Min/+ MEFs [12] = assay: Annexin V-Alexa Fluor488 / propidium iodide apoptosis FACS; type: cell-based, mouse; conditions: 50 μM, 48 hour treatment
# Method: (§4) Apoptotic cells that externalize the normal internal membrane lipid, phosphatidylserine, were analyzed by binding a fluorescently conjugated PS-binding protein, Annein V-Alexa Fluor488. These cells can be distinguished from the late apoptotic cells that also allow the DNA dye, Propidium iodide (PI) to penetrate the cell membranes allowing intracellular DNA to bind it. As shown in FIG. 1D i-ii, 73% of Apc^Min/+ MEFs were in early and late stages of apoptosis after a 48 hour treatment with 9-bromonoscapine (50 μM) as compared to a modest 21.6% WT MEFs under identical treatment regimen (FIG. 1D i-ii). 9-Bromonoscapine causes a selective cell death (apoptosis) in MEFs isolated from Apc^Min/+ mice when compared to the WT MEFs providing a therapeutic window from 5-50 μM range.
# WT MEFs [13] = assay: as above; type: cell-based, mouse; conditions: 50 μM, 48 hour treatment
# Method: as §4
# tubulin = conditions: without changing total microtubule polymer mass; cited from earlier work
# WT MEFs [14] = assay: FACS analysis of DNA content; type: cell-based, mouse
# [15] = drug treated vs vehicle-treated
# [16] = Treated 1: oral 150 mg/kg daily from 8 weeks of age for 12 weeks
# [17] = Treated 2: oral 150 mg/kg from 21 days after birth to end point
compound,measurement,setting,value
"COc1ccc2c(c1OC)C(=O)OC2C1c2c(c(Br)c3c(c2OC)OCO3)CCN1C (stereo not drawn) [9-bromonoscapine, 3-(9-bromoe-4-methoxy-6-methyl-5,6,7,8-tetrahydro-[1,3]dioxolo[4,5-g]isoquinolin-5-yl)-6,7-dimethoxyisobenzofuran-1(3H)-one]",β-catenin activity lowered to,"[1]; Apc^Min/+ MEFs, p<0.01",59%
same,β-catenin activity (in words),[1]; Apc^Min/+ cells,fell to half the original levels
same,"systemic homeostasis (albumin, total protein, glucose) and electrolyte balances (Na+, K+, TCO2)",[2]; among the three groups,not distinguishable profiles
same,"tissue architecture (H&E sections of brain, lung, liver, kidney, thymus, spleen, heart, sciatic nerve)","[2]; blinded observations, treated vs vehicle",did not reveal any significant differences
same,"liver function tests (total bilirubin, alanine transaminase, aspartate aminotransferase, alkaline phosphate levels)",[2]; [15],similar
same,renal functions tests (blood urea nitrogen and creatinine levels),[2]; [15],similar
same,"WBC, RBC counts, hemoglobin concentration, hematocrit, platelet counts",[2]; treated vs vehicle,no significant differences
same,mitotic phenotype,Apc^Min/+ MEFs [3],"highly disorganized, often multipolar mitoses"
same,decline in β-catenin activity,[4],31%
same,β-catenin activity lowered to,[5],48%
same,cell cycle distribution (DNA content),Apc^Min/+ MEFs [6],a decline in G1 and a rise in G2/M
same,sub-G1 DNA content,Apc^Min/+ MEFs [6]; 48 hours of treatment,distinct shift of cells to a sub-G1 DNA content of <2N
same,β-catenin levels,[7],two-fold decrease; also recorded: fell to half the original levels
same,IC50,"Apc^Min/+ MEFs [8]; Apc^Min/+ MEFs, 48 hours, trypan blue exclusion",28.6 µM
same,therapeutic window for selective killing of Apc^Min/+ MEFs,Apc^Min/+ MEFs [8]; minimal damage to WT MEFs,5 to 50 µM
same,sensitivity of Apc^Min/+ MEFs relative to WT MEFs,"Apc^Min/+ MEFs [8]; ratio of IC50 values, 48 hours",4.7 times
same,IC50,WT MEFs [9],135 µM
same,mitotic phenotype,WT MEFs [10],typical mitotic arrest with bipolar prometaphase spindles
same,number and overall areas of intestinal lesions,"Apc^Min/+ mice; 150 mg/kg body weight, methylene blue stained intestine",pronounced decrease
same,apoptotic foci in lesioned tissue (cleaved caspase 3 immunohistochemistry),"Apc^Min/+ mice; 150 mg/kg, basal areas of the villus",additional copious apoptotic foci
same,"adenoma load, distal intestine",Apc^Min/+ mice; [16],5.2±0.6 mm2
same,"adenoma load, proximal intestine",Apc^Min/+ mice; [16],13.7±1.4 mm^2
same,"adenoma load, distal intestine",Apc^Min/+ mice; [17],5.2±0.8 mm2
same,"adenoma load, proximal intestine",Apc^Min/+ mice; [17],11.8±0.8 mm^2
same,total number of adenomas,"Apc^Min/+ mice; both treatment groups (Treated 1, Treated 2) vs sham-treated controls, oral 150 mg/kg",significant decline
same,number of big lesions (>3 mm^2 and >1 mm^2),"Apc^Min/+ mice; size distribution bins, oral 150 mg/kg",significant decreases
same,adenoma within the colon,Apc^Min/+ mice; treated vs control,did not reveal any apparent differences
same,c-Myc protein level,[11],down
same,caspase-3 activation (cleaved active caspase-3),[11],activated
same,cyclin D1 protein level,[11],down
same,p21 level,[11],elevated
same,cells in early and late stages of apoptosis,Apc^Min/+ MEFs [12],73%
same,cells in early and late stages of apoptosis,WT MEFs [13],21.6%
same,tubulin binding affinity relative to noscapine,tubulin,higher affinity than noscapine
same,cell cycle distribution (DNA content),WT MEFs [14],a decline in G1 and a rise in G2/M
"COc1ccc2c(c1OC)C(=O)OC2C1c2c(cc3c(c2OC)OCO3)CCN1C (stereo not drawn) [noscapine, 3-(4-methoxy-6-methyl-5,6,7,8-tetrahydro-[1,3]dioxolo[4,5-g]isoquinolin-5-yl)-6,7-dimethoxyisobenzofuran-1(3H)-one]",cell cycle distribution (DNA content),WT MEFs [14],reversible G2/M arrest
